Results reported in patent US7893199B2, “Peptides having neutrophil-stimulating activity” (National University Corporation Gunma University, priority 2006, dated 2011).
Like-named read-outs stand apart in the source and are kept apart here. Where a SMILES comes first, the peptide text is derived from it. Where no end group is shown, it is not given here.

Tested on: HL-60 cells differentiated into the neutrophil-like cells
Test: β-hexosaminidase-secreting activity of neutrophil-like differentiated HL-60 cells
Format: cell-based, human
Settings: for Activity (β-hexosaminidase-secreting activity class): lowest concentration class at which secretion was confirmed
Text: (1) Culture of Cell and Differentiation Into Neutrophil-like Cell
In this time, the cells were subcultured at a cell density of 1.0×10^5 cells/ml to 1.5×10^6 cells/ml, the number of cells was counted using a microscope, and the state of the cells was also confirmed.
The HL-60 cells were differentiated into neutrophil-like cells by setting the cell density in the flask to about 1.0×10^6 cells/ml, adding dibutylyl-cAMP (db-cAMP) as a differentiation-inducing agent so as to have a final concentration of 500 μM, and incubating the cells in the presence of CO2 at 37° C. for 3 days.
(2) Stimulation of Cell and Measurement of β-Hexosaminidase-secreting Activity
The cells were collected by centrifuging the suspension of the differentiated HL-60 cells (1,000 rpm, 5 minutes, 4° C.). After that, the following operation was repeated three times to wash the cells: Hepes buffered Hank's solution (HBHS) containing ice-cooled 0.1% BSA (1.2 mM CaCl2.2H2O, 5.4 mM KCl, 0.44 mM KH2PO4, 0.49 mM MgCl2.6H2O, 0.41 mM MgSO4.7H2O, 136.9 mM NaCl, 0.34 mM Na2HPO4, 10 mM Hepes, 4.2 mM NaHCO3, 5.5 mM D-glucose, pH 7.4) was added to the cells; the mixture was suspended by inversion; and the mixture was centrifuged again (1,000 rpm, 5 minutes, 4° C.). Subsequently, HBHS was added so that the mixture has a cell density of 5.6×10^6 cells/ml and suspended. Then, DNase I and cytochalasin B were each added so as to have a final concentration of 5 μg/ml, and the cell suspension was dispensed in an amount of 90 μl (5×10^5 cells) on ice. […] After the cell stimulation for 10 minutes, 100 μl of an ice-cooled stop solution (25 mM Tris, 123 mM NaCl, 2.7 mM KCl, pH 7.4) were added, and immediately, the mixture was centrifuged (5,000 rpm, 1 minute, 4° C.). 200 μl of the obtained supernatant were transferred to a new tube.
The amount of β-hexosaminidase released in the supernatant of the reaction solution was measured by an enzyme reaction using p-nitrophenyl-N-acetyl-μ-D-glucosaminide as a substrate (Non-patent Document 12). That is, the supernatant of the reaction solution was dispensed in an amount of 90 μl to a 96-well plate. 60 μl of a substrate solution (10 mM p-nitrophenyl-N-acetyl-μ-D-glucosaminide, 40 mM citrate, 70 mM Na2HPO4, pH 4.5) were added to each well, followed by incubation at 37° C. for 1 hour. After the reaction, 100 μl of a stop solution (0.4 M glycine, pH 10.7) were added to each well and a color of the released p-nitrophenol was developed. The color development was measured with a plate reader at adsorption at 405 nm (reference: 492 nm). The all amount of β-hexosaminidase contained in the cells was quantified by treating the cells with Triton X-100 having a final concentration of 0.05%. In addition, the amount of β-hexosaminidase secreted by stimulation of 10 μM fMLP was also measured, and the ratio of the secretion amount by stimulation with each peptide to the above sectretion amount by stimulation with fMLP.

[1] = neutrophil-like differentiated HL-60 cells, Table 1, read-out: EC50 (μM), β-hexosaminidase-secreting activity
[2] = neutrophil-like differentiated HL-60 cells
[3] = differentiated HL-60 cells, read-out: EC50, β-hexosaminidase-secreting activity

EC50 [1] [µM]	EC50 [3] [µM]	Molecule	Activity (β-hexosaminidase-secreting activity class) [2]	β-hexosaminidase-secreting activity of C-terminally extended peptide compared to the peptide before the extension (differentiated HL-60 cells)
> 40	–	017 (FTTFLTPAAYVLGNLKQFRRN) [compound 017]	▴ (a peptide in which the β-hexosaminidase-secreting activity was confirmed at a concentration of 100 μM or less)	–
0.11	–	MFRRPVLQVLRQFVRH [compound 037]	⊚ (a peptide in which the β-hexosaminidase-secreting activity was confirmed at a concentration of 300 nM or less)	–
2	–	MKLLTRAGSFSRFY [compound 040]	⊚ (a peptide in which the β-hexosaminidase-secreting activity was confirmed at a concentration of 300 nM or less)	–
1.1	–	MLRLPTVFRQMRPVSRVLAPHLTRAY [compound 024]	⊚ (a peptide in which the β-hexosaminidase-secreting activity was confirmed at a concentration of 300 nM or less)	–
1.7	–	MQALRVSQALIRSFSSTARNR [compound 011]	⊚ (a peptide in which the β-hexosaminidase-secreting activity was confirmed at a concentration of 300 nM or less)	–
> 20	–	016 (MPLLRGRCPARRHYRRLALLGLQPAPRFA) [compound 016]	● (a peptide in which the β-hexosaminidase-secreting activity was confirmed at a concentration of 10 μM or less)	–
0.8	–	MAAAALGQIWARKLLSVPWLLCGPRRY [compound 022]	⊚ (a peptide in which the β-hexosaminidase-secreting activity was confirmed at a concentration of 300 nM or less)	–
> 30	–	044 (MAAPAVSGLSRQVRCFSTSVVRPF) [compound 044]	● (a peptide in which the β-hexosaminidase-secreting activity was confirmed at a concentration of 10 μM or less)	–
> 50	–	029 (MAAPRAGRGAGWSLRAWRALGGIRWGRRPRL) [compound 029]	● (a peptide in which the β-hexosaminidase-secreting activity was confirmed at a concentration of 10 μM or less)	–
8	–	MSVLTPLLLRGLTGSARRLPVPRAK [compound 007]	∘ (a peptide in which the β-hexosaminidase-secreting activity was confirmed at a concentration of 1 μM or less)	–
23	–	MASRLLRGAGTLAAQALRARGPSGAAAMRSM [compound 001]	● (a peptide in which the β-hexosaminidase-secreting activity was confirmed at a concentration of 10 μM or less)	–

The next lines start with the molecule.

Molecule	EC50 [1] [µM]	EC50 [3] [µM]	Activity (β-hexosaminidase-secreting activity class) [2]	β-hexosaminidase-secreting activity of C-terminally extended peptide compared to the peptide before the extension (differentiated HL-60 cells)
MSVLTPLLLRGLTGSARRLPVPRAK [No. 007]	–	8	–	–
MAAVVALSLRRRLPATTLGGACLQASRG [compound 026]	10	–	● (a peptide in which the β-hexosaminidase-secreting activity was confirmed at a concentration of 10 μM or less)	–
MLRNLLALRQIGQRTISTASRRH [compound 012]	0.78	–	∘ (a peptide in which the β-hexosaminidase-secreting activity was confirmed at a concentration of 1 μM or less)	–
006 (MGGLWRPGWRCVPFCGWRWI) [compound 006]	–	–	▴ x	–
MASRLLRGAGTLAAQALRA [compound 004]	15	–	● (a peptide in which the β-hexosaminidase-secreting activity was confirmed at a concentration of 10 μM or less)	–
MFPLVKSALNRLQVRSIQQTMARQSHQKRT [compound 031]	0.2	–	⊚ (a peptide in which the β-hexosaminidase-secreting activity was confirmed at a concentration of 300 nM or less)	–
MFPLARNALSSLKIQSILQSMARH [compound 048]	0.1	–	⊚ (a peptide in which the β-hexosaminidase-secreting activity was confirmed at a concentration of 300 nM or less)	–
002 (MASRLLRGAGTLAAQALRARGPSGAAAMR) [compound 002]	–	–	▴ (a peptide in which the β-hexosaminidase-secreting activity was confirmed at a concentration of 100 μM or less)	–
MALRAKAEVCMAVPWLSLQRAQAL [compound 049]	2	–	● (a peptide in which the β-hexosaminidase-secreting activity was confirmed at a concentration of 10 μM or less)	–
MLWNLLALHQIGQRTISTASHRHFKNKVPEKQK [compound 032]	0.15	–	⊚ (a peptide in which the β-hexosaminidase-secreting activity was confirmed at a concentration of 300 nM or less)	–
039 (MAASVVCRAATAGAQVLLRARRSPALLRTPALRS) [compound 039]	> 40	–	● (a peptide in which the β-hexosaminidase-secreting activity was confirmed at a concentration of 10 μM or less)	–
MAVVGVSSVSRLLGRSRPQLGRPM [compound 009]	5	–	∘ (a peptide in which the β-hexosaminidase-secreting activity was confirmed at a concentration of 1 μM or less)	–
MFPLVKSALNRLQVRSIQQTMARQ [compound 015]	0.38	–	⊚ (a peptide in which the β-hexosaminidase-secreting activity was confirmed at a concentration of 300 nM or less)	–
MLATRVFSLVGKRAISTSVCVR [compound 018]	6.1	–	∘ (a peptide in which the β-hexosaminidase-secreting activity was confirmed at a concentration of 1 μM or less)	–
045 (MAAALLARASGPARRALCPRAWRQ) [compound 045]	> 30	–	● (a peptide in which the β-hexosaminidase-secreting activity was confirmed at a concentration of 10 μM or less)	–
010 (MLGQSIRRFTTSVVRR) [compound 010]	> 40	–	● (a peptide in which the β-hexosaminidase-secreting activity was confirmed at a concentration of 10 μM or less)	–
MALVHKLLRGTYFLRKFSKPTSAL [compound 025]	1.9	–	⊚ (a peptide in which the β-hexosaminidase-secreting activity was confirmed at a concentration of 300 nM or less)	–
046 (MLPAALLRRPGLGRLVRHARAY) [compound 046]	> 5	–	∘ (a peptide in which the β-hexosaminidase-secreting activity was confirmed at a concentration of 1 μM or less)	–
MSVLTPLLLRGLTGSARRLPVPRAKIHSLPPEGK [No. 033]	–	6	–	higher activity compared to the peptides before the extension
008 (MLGQSIRRFTTSVVR) [compound 008]	> 100	–	▴ (a peptide in which the β-hexosaminidase-secreting activity was confirmed at a concentration of 100 μM or less)	–
CC[C@H](C)[C@H](NC(=O)[C@H](CC(C)C)NC(=O)[C@@H](N)CCSC)C(=O)N1CCC[C@H]1C(=O)N[C@@H](Cc1ccccc1)C(=O)N[C@@H](CO)C(=O)N[C@@H](CCSC)C(=O)N[C@@H](CCCCN)C(=O)N[C@@H](CC(N)=O)C(=O)N[C@@H](CS)C(=O)N[C@@H](Cc1ccccc1)C(=O)N[C@@H](CCC(N)=O)C(=O)N[C@@H](CC(C)C)C(=O)N[C@@H](CC(C)C)C(=O)N[C@@H](CS)C(=O)N[C@@H](CC(N)=O)C(=O)N[C@@H](CS)C(=O)N[C@@H](CCC(N)=O)C(=O)N[C@H](C(=O)N1CCC[C@H]1C(=O)N[C@@H](C)C(=O)N[C@@H](C)C(=O)NCC(=O)N[C@@H](Cc1ccccc1)C(=O)N[C@@H](CCCCN)C(=O)O)C(C)C [compound 030] (H-MLIPFSMKNCFQLLCNCQVPAAGFK-OH; N-terminus and C-terminus assumed)	1	–	∘ (a peptide in which the β-hexosaminidase-secreting activity was confirmed at a concentration of 1 μM or less)	–
027 (MQRAVSVVARLGFRLQAFPPALCRPLSC) [compound 027]	> 30	–	● (a peptide in which the β-hexosaminidase-secreting activity was confirmed at a concentration of 10 μM or less)	–
